Measurements: patent US12104169B2, “Chemical reprogramming to generate neuronal cells” (The J. David Gladstone Institutes, a testamentary trust …, priority 2015, dated 2024)
Counter-ions that a name gives are not always drawn.

Tests used:
SAPK2/p38 = SAPK2/p38 (Homo sapiens, UniProt Q16539); conditions: CK1 and ALK5 inhibitor versus SAPK2/p38; cited from earlier work
tdMEFs = test: Combinatorial chemical screening for neural reprogramming of tdMEFs (Sox2/Nestin co-expression); assay type: cell-based, mouse; conditions: for Sox2/Nestin double-positive cells: primary screening, single molecule added to basal condition (LDN, A83, CHIR, bFGF), ten days post-treatment; for generation of Sox2/Nestin double-positive cells: added to the six-molecule condition
Method: (§1) Cells were washed once with 1×PBS and fixed with 4% paraformaldehyde at room temperature for 10 minutes, followed by permeabilization with 0.2% Triton X-100 in 1×PBS for 10 min, and blocking with 7.5% BSA for at least 1 hour. All primary antibodies were diluted in 1×PBS with 7.5% BSA, and the incubation was performed at 4° C. overnight. The cells were washed with 1×PBS five times for 10 min each at room temperature. The secondary antibodies, labeled with Alexa-488, Alexa-555, and Alexa-647, were purchased from Invitrogen, and were diluted into 1×PBS with 7.5% BSA. Incubation with the secondary antibodies was for 1 hour at room temperature, followed by five 10-minute washes with 1×PBS. The nuclei were stained with DAPI. Living cell staining was used for cell-surface marker O4, as described by Najm et al. (Nat. Biotechnol. 31: 426-433 (2013)). Antibodies used in this study are listed below in Table 1.
Briefly, tdMEFs were plated into neural reprogramming basal medium at 15,000 cells per well in 24-well plate, and after an overnight culture, individual small molecules from a focused chemical collection, including epigenetic modifiers, metabolism regulators, and signaling modulators, were added. Ten days post-treatment, cells were fixed, immune-stained, and analyzed for co-expression of Sox2 and Nestin, two typical NSC markers (FIG. 1A-1B).

tdMEF [1] = test: Inhibitor assay: pathway inhibitors added to M9 reprogramming; assay type: cell-based, mouse; conditions: Sox2+/Nestin+ cells at day 10
Method: When performing the reprogramming, small molecule inhibitors, including 0.5 μM PD0325901, 10 μM SP 600125, 5 μM SB203580, 5 μM LY294002, or 2 μM LDE 225, was added in the freshly made M9 culture medium. DMSO was used in basal medium as control. The medium was changed every 2 days, and the Sox2+/Nestin+ cells were analyzed by immunostaining by day 10 after treatment.

ciNSLC-derived neurons = assay type: cell-based, mouse
Hedgehog (Hh) signaling = conditions: read-out: EC50 activation of Hedgehog (Hh) signaling; cited from earlier work
tdMEF [2] = test: M9 chemical conversion of tdMEFs to ciNSLCs (Sox2/Nestin immunostaining); assay type: cell-based, mouse; conditions: FIG. 2G
Method: To convert the fibroblasts into ciNSLCs, MEFs were seeded into Matrigel (Corning, 1:40 dilution)-coated 24-well plates at 15,000 per well, or 1-1.5 million in 15-cm dishes in MEF medium (Dulbecco's modified Eagle's medium supplemented with 10% FBS, 0.1 mM nonessential amino acids, and 2 mM Glutamax) for the first 24 hours. […] M9 medium was refreshed every other day. After a 10-day induction, cells were cultured in neural stem cells medium (NSC medium). Afterwards, the cells could be repeatedly propagated in NSC medium.
as §1, with “Antibodies used in this study are listed below in Table 1.” left out

[3] = system: A53T alpha-synuclein clearance in PC-12 cells; conditions: independent of rapamycin treatment; cited from earlier work
[4] = molecular target: Smoothened (Smo) receptor (Homo sapiens, UniProt Q99835); conditions: cited from earlier work
[5] = system: Hedgehog signaling pathway in Shh-light 2 cells; conditions: read-out: EC50 activation of Hedgehog signaling pathway; cited from earlier work

SAPK2/p38, sequence (Q16539 whole entry): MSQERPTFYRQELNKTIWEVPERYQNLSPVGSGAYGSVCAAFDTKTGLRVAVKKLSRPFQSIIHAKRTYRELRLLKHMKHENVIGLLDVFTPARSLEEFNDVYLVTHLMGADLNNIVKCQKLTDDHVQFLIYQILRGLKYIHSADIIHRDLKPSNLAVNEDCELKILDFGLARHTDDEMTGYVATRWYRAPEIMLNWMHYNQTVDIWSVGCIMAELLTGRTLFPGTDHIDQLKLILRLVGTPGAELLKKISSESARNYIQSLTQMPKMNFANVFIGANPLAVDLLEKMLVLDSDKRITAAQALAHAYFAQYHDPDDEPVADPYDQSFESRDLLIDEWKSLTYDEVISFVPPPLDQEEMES
Smoothened (Smo) receptor, sequence (Q99835 28-787): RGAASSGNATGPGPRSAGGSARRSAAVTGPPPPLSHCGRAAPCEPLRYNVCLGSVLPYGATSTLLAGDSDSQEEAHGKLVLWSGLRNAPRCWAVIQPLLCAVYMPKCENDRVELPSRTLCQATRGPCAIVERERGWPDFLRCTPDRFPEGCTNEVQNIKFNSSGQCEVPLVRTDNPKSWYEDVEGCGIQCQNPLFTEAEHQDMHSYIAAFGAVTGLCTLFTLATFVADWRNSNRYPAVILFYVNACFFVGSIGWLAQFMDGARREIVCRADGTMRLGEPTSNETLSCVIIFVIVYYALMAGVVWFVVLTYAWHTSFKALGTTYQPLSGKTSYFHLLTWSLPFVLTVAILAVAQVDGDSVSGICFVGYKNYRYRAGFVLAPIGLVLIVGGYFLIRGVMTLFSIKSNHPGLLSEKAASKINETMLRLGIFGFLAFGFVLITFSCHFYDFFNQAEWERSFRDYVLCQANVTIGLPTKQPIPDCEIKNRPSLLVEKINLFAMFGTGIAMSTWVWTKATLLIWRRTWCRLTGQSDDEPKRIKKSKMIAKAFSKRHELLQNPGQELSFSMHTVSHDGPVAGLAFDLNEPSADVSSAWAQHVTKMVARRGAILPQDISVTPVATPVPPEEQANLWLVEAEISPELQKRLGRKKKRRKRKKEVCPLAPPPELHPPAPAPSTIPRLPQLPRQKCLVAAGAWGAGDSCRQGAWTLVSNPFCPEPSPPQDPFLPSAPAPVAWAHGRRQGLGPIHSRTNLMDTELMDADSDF

Compound: NC(=O)c1ccc(-c2nc(-c3ccc4c(c3)OCCO4)c(-c3ccccn3)[nH]2)cc1 [D 4476, 4-[4-(2,3-Dihydro-1,4-benzodioxin-6-yl)-5-(2-pyridinyl)-1H-imidazol-2-yl]benzamide]
- selectivity over SAPK2/p38 (SAPK2/p38): greater than 20 fold

Compound: CC1=C(/C=C/C(C)=C/C=C/C(C)=C/C(=O)O)C(C)(C)CCC1 [retinoic acid]
- Sox2/Nestin double-positive cells (tdMEFs): 1.26%

Compound: O=c1cc(N2CCOCC2)oc2c(-c3ccccc3)cccc12 [LY294002]
- reduction of reprogramming efficiency (tdMEF [1]; 5 μM LY294002 added to M9 medium): ~4 fold

Compound: C[S+]([O-])c1ccc(-c2nc(-c3ccc(F)cc3)c(-c3ccncc3)[nH]2)cc1 (stereo not shown) [SB203580]
- reduction of reprogramming efficiency (tdMEF [1]; 5 μM SB203580 added to M9 medium): ~5 fold

Compound: O=C(NOC[C@H](O)CO)c1ccc(F)c(F)c1Nc1ccc(I)cc1F [PD0325901]
- reduction of reprogramming efficiency (tdMEF [1]; 0.5 μM added to M9 medium): about 9 fold

Compound: CC[N+](CC)(CC)CC [tetraethylammonium]
- persistent outward current (ciNSLC-derived neurons): blocked

Compound: O=C(O)[C@@H](Cc1c[nH]c2ccccc12)N1C(=O)c2ccccc2C1=O (stereo in doubt) [RG108, N-Phthalyl-L-tryptophan]
- generation of Sox2/Nestin double-positive cells (tdMEFs): further enhanced

Compound: N[C@@H]1C[C@H]1c1ccccc1 (racemic) [Parnate, tranylcypromine sulfate]
- generation of Sox2/Nestin double-positive cells (tdMEFs): further enhanced

Compound: Oc1c2ccccc2c2c3c(cccc13)N=N2 [SP600125]
- reduction of reprogramming efficiency (tdMEF [1]; 10 μM added to M9 medium): ~6 fold

Compound: CC(C)CCC[C@](C)(O)[C@H]1CC[C@H]2[C@@H]3CC=C4C[C@@H](O)CC[C@]4(C)[C@H]3CC[C@@]21C [(3β)-Cholest-5-ene-3,20-diol]
- EC50 (Hedgehog (Hh) signaling): ~3000 nM

Compound: CNC1CCC(N(Cc2cccc(-c3ccncc3)c2)C(=O)c2sc3c(F)ccc(F)c3c2Cl)CC1 (stereo not shown) [Hh-Ag 1.5, 3-chloro-4,7-difluoro-N-(4-(methylamino)cyclohexyl)-N-(3-(pyridin-4-yl)benzyl)benzo[b]thiophene-2-carboxamide]
- reprogramming efficiency when the component is removed from the M9 cocktail (tdMEF [2]): affected the ciNSLC induction most
- Sox2/Nestin double-positive cells (tdMEFs): 3.68%

Compound: C=CCNc1ncnc2ccc(Br)cc12 [SMER28, 6-bromo-N-2-propenyl-4-quinazolinamine]
- A53T alpha-synuclein clearance [3]: enhances
- generation of Sox2/Nestin double-positive cells (tdMEFs): further enhanced

Compound: CN[C@H]1CC[C@H](N(Cc2cccc(-c3ccncc3)c2)C(=O)c2sc3ccccc3c2Cl)CC1 [SAG, 3-Chloro-N-[trans-4-(methylamino)cyclohexyl]-N-[[3-(4-pyridinyl)phenyl]methyl]benzo[b]thiophene-2-carboxamide]
- Kd [4]: 59 nM
- EC50 [5]: ~3 nM

Compound: NC1=N[C@H](O)[C@H]2[C@H]3O[C@]4(O)O[C@@H]([C@@H](O)[C@@]2(N1)[C@@H]4O)[C@]3(O)CO [tetrodotoxin]
- inactivating inward current (ciNSLC-derived neurons): blocked

Compound: bFGF: basic fibroblast growth factor (bFGF; also known as FGF2)
- reprogramming efficiency when the component is removed from the M9 cocktail (tdMEF [2]): affected the ciNSLC induction most

Compound: Cc1c(C(=O)Nc2ccc(N3C[C@@H](C)O[C@@H](C)C3)nc2)cccc1-c1ccc(OC(F)(F)F)cc1 [LDE-225]
- reduction of reprogramming efficiency (tdMEF [1]; 2 μM added to M9 medium): about 6 fold
